Measurements published in patent US12102086B2, “Antimicrobial peptide Spampcin56-86 from Scylla paramamosain and applications thereof” (XIAMEN UNIVERSITY, priority 2021, dated 2024).
Residues, ends and D or L forms follow the SMILES beside them.

Columns and labels:
L. monocytogenes = test: MIC and MBC determination; assay type: cell-based, Listeria Monocytogenes; settings: CGMC NO. 1.10753, Gram-positive
E. faecalis = test: MIC and MBC determination; assay type: cell-based, Enterococcus Faecalis; settings: CGMC NO. 1.2135, Gram-positive
E. faecium = test: MIC and MBC determination; assay type: cell-based, Enterococcus Faecium; settings: CGMC NO. 1.131, Gram-positive
P. fluorescens = test: MIC and MBC determination; assay type: cell-based, Pseudomonas fluorescens; settings: CGMC NO. 1.3202, Gram-negative
S. epidermidis = settings: CGMC NO. 1.4260, Gram-positive
P. aeruginosa = settings: CGMC NO. 1.2421, Gram-negative
A. baumannii = settings: CGMC NO. 1.6769, Gram-negative
A. sobria = settings: Gram-negative
A. hydrophila = settings: CGMC NO. 1.2017, Gram-negative
E. tarda = settings: Gram-negative
A. baumannii QZ20142 = settings: A. baumannii QZ20142, drug-resistant clinical isolate
F. oxysporum = settings: CGMC NO. 3.6785, fungi
F. solani = settings: CGMC NO. 3.5840, fungi

For `CC(C)C[C@H](NC(=O)CNC(=O)[C@H](Cc1c[nH]cn1)NC(=O)[C@H](C)NC(=O)[C@H](C)NC(=O)[C@H](CCCNC(=N)N)NC(=O)[C@@H](N)CCCNC(=N)N)C(=O)N[C@@H](CC(C)C)C(=O)N1CCC[C@H]1C(=O)N[C@@H](CCCNC(=N)N)C(=O)N[C@@H](CC(C)C)C(=O)N[C@@H](CCCNC(=N)N)C(=O)N[C@@H](C)C(=O)N1CCC[C@H]1C(=O)N1CCC[C@H]1C(=O)N1CCC[C@H]1C(=O)N[C@@H](Cc1ccccc1)C(=O)N[C@@H](Cc1c[nH]cn1)C(=O)N[C@@H](CCCCN)C(=O)N[C@@H](CCCNC(=N)N)C(=O)N[C@@H](CS)C(=O)N[C@H](C(=O)N[C@@H](CS)C(=O)N[C@@H](CC(C)C)C(=O)N[C@@H](CS)C(=O)N[C@@H](CCCNC(=N)N)C(=O)N[C@H](C(=O)N[C@@H](C)C(=O)N1CCC[C@H]1C(=O)N1CCC[C@H]1C(=O)N1CCC[C@H]1C(=O)O)[C@@H](C)O)C(C)C` [Spampcin56-86] (H-RRAAHGLLPRLRAPPPFHKRCVCLCRTAPPP-OH; N-terminus and C-terminus assumed), the MBC (L. monocytogenes) was 1.5-3^ μM, the MIC (L. monocytogenes) was 1.5-3^ μM and the MBC (E. faecalis) was 1.5-3^ μM. The MIC (E. faecalis) was 1.5-3^ μM, the MBC (E. faecium) was 1.5-3^ μM and the MIC (E. faecium) was 0 to 1.5 µM. For the same compound, the MBC (P. fluorescens) was 1.5-3^ μM, the MIC (P. fluorescens) was 1.5-3^ μM and the MBC (S. aureus) was 3 to 6 µM. It also gave an MBC (S. epidermidis) of 3 to 6 µM, an MIC (S. epidermidis) of 3 to 6 µM and an MBC (S. aureus QZ19132) of 12 to 24 µM. The MBC (P. aeruginosa) was 3 to 6 µM, the MIC (P. aeruginosa) was 1.5-3^ μM and the MBC (A. baumannii) was 3 to 6 µM. It also gave an MIC (A. baumannii) of 3 to 6 µM, an MBC (A. sobria) of 3 to 6 µM and an MIC (A. sobria) of 3 to 6 µM. The MBC (A. hydrophila) was 6 to 12 µM, the MIC (A. hydrophila) was 6 to 12 µM and the MBC (E. coli) was 3 to 6 µM. The MIC (E. coli) was 3 to 6 µM, the MBC (E. tarda) was 24 to 48 µM and the MIC (E. tarda) was 3 to 6 µM. It also gave an MBC (A. baumannii QZ20142) of 3 to 6 µM, an MIC (A. baumannii QZ20142) of 3 to 6 µM and an MIC (A. baumannii QZ20143) of 3 to 6 µM. It also gave an MBC (F. oxysporum) of 3 to 6 µM, an MIC (F. oxysporum) of 3 to 6 µM and an MBC (F. solani) of 3 to 6 µM. The MIC (F. solani) was 1.5-3^ μM.
